Assay results reported in patent US20240018136A1, “CDK Inhibitors And Their Use As Pharmaceuticals” (Prelude Therapeutics, Incorporated, priority 2022, published 2024).

Tests used:
[1] = test system: OVCAR3 p-RB; assay: pRB ICW assay in OVCAR3 cells; format: cell-based; settings: Homo sapiens, OVCAR-3, incubated with compound for 2 hours
Outline: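 OVCAR3 cells were treated 2 h at 37 °C with a 9-point half-log compound series, in duplicate, with 10 μM reference compound as maximum inhibition. Cells were then fixed, permeabilized and stained with anti-phospho-RB plus DRAQ5. In-cell western intensities were read at 700/800 nm on Odyssey CLx.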

[2] = molecular target: T1, CDK4/Cyclin D1 (Homo sapiens, UniProt P11802); assay: CDK4/CyclinD1 enzymatic activity assay (TR-FRET); format: biochemical; settings: ATP 2 mM final, read-out: CDK4_D1 IC50
T1 construct: purchased ProQinase; host or cells: insect cell
Outline: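 Insect-cell-expressed CDK4/Cyclin D1 (1 nM) phosphorylated ULight-4E-BP1 peptide (100 nM) at 2 mM ATP in HEPES pH 7.4 buffer after 20 min compound preincubation. Reaction started with 10 mM MgCl2, ran 45 min at 37 °C, then EDTA quench and Eu-anti-phospho-4E-BP1 TR-FRET detection. IC50 from 9-point 3-fold dilutions, 4-parameter fit.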

[3] = molecular target: CDK2/Cyclin E2 (Homo sapiens, UniProt P24941); assay: CDK2/CyclinE2 enzymatic activity assay (TR-FRET); format: biochemical; settings: ATP 1 mM final, read-out: CDK2_E1 IC50
Outline: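 Insect-cell-expressed CDK2/Cyclin E2 (1 nM), ULight-4E-BP1 (50 nM) and ATP (1 mM) in HEPES pH 7.4 buffer were preincubated 20 min at RT with compound (9-dose, 3-fold), started with 10 mM MgCl2 and run 45 min at 37 °C. EDTA/Eu-anti-P-4E-BP1 stop, 60 min TR-FRET detection; IC50 from 4-parameter Hill fit.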

T1 sequence (P11802 whole entry): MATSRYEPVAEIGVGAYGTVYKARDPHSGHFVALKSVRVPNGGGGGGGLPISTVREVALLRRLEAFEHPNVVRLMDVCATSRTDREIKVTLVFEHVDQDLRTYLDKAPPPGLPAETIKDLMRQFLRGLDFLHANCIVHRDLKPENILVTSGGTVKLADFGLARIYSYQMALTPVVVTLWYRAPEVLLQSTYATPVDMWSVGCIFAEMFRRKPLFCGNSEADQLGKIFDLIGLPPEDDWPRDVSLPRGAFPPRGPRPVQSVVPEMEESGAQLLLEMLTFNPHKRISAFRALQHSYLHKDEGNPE
T1 sequence (P24385 whole entry partner): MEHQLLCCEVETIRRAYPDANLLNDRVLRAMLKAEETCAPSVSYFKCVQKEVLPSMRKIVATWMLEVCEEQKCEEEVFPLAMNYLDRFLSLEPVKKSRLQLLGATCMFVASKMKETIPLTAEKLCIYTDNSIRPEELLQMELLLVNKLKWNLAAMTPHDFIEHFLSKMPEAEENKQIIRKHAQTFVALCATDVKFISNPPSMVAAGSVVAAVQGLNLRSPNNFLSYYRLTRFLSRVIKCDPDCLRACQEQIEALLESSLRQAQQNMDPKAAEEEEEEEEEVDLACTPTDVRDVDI

| Structure (SMILES) | IC50 [1] [µM] | IC50 [2] [µM] | IC50 [3] [µM] |
| --- | --- | --- | --- |
| CS(=O)(=O)N1CCC(Nc2ncc(C(F)(F)F)c(-c3cnc(-c4ccc(CO)cc4)s3)n2)CC1 [Example 6, [4-[5-[2-[(1-Methylsulfonylpiperidin-4-yl)amino]-5-(trifluoromethyl)-pyrimidin-4-yl]-1,3-thiazol-2-yl]phenyl]methanol] | 0.1 to 1 | ≤ 0.1 | ≤ 0.1 |
| CC(C)(O)Cc1ncc(-c2nc(NC3CCN(S(=O)(=O)CCCN4CCC(C#N)CC4)CC3)ncc2C(F)(F)F)s1 [Example 78, 1-(3-((4-((4-(2-(2-hydroxy-2-methylpropyl)thiazol-5-yl)-5-(trifluoromethyl)pyrimidin-2-yl)amino)piperidin-1-yl)sulfonyl)propyl)piperidine-4-carbonitrile] | 0.1 to 1 | ≤ 0.1 | ≤ 0.1 |
| COC(=O)N(C)Cc1ccc(-c2ncc(-c3nc(NC4CCN(S(C)(=O)=O)CC4)ncc3C(F)(F)F)s2)c(C)c1 [Example 14, methyl N-methyl-N-[[3-methyl-4-[5-[2-[(1-methylsulfonylpiperidin-4-yl)amino]-5-(trifluoromethyl)pyrimidin-4-yl]-1,3-thiazol-2-yl]phenyl]methyl]carbamate] | > 1 | 0.1 to 1 | ≤ 0.1 |
| CS(=O)(=O)N1CCC(Nc2ncc(C(F)(F)F)c(-c3cnc(NC(=O)C(F)(F)F)s3)n2)CC1 [Example 57, 2,2,2-Trifluoro-N-[5-[2-[(1-methylsulfonylpiperidin-4-yl)amino]-5-(trifluoromethyl)pyrimidin-4-yl]-1,3-thiazol-2-yl]acetamide] | > 1 | ≤ 0.1 | ≤ 0.1 |
| Cn1cnc(S(=O)(=O)N2CCC(Nc3ncc(C(F)(F)F)c(-c4cnc(CC(C)(C)O)s4)n3)CC2)c1 [Example 70, 2-methyl-1-(5-(2-((1-((1-methyl-1H-imidazol-4-yl)sulfonyl)piperidin-4-yl)amino)-5-(trifluoromethyl)pyrimidin-4-yl)thiazol-2-yl)propan-2-ol] | ≤ 0.1 | ≤ 0.1 | ≤ 0.1 |
| Cn1cc(S(=O)(=O)N2CCC(Nc3ncc(C(F)(F)F)c(-c4cnc(C(O)C(F)F)s4)n3)CC2)cn1 (stereo not drawn) [Example 92, 2,2-difluoro-1-(5-(2-((1-((1-methyl-1H-pyrazol-4-yl)sulfonyl)piperidin-4-yl)amino)-5-(trifluoromethyl)pyrimidin-4-yl)thiazol-2-yl)ethan-1-ol] | ≤ 0.1 | ≤ 0.1 | ≤ 0.1 |
| Cn1cnc(S(=O)(=O)N2CCC(Nc3ncc(C(F)(F)F)c(-c4cnc(C(O)C(F)(F)F)s4)n3)CC2)c1 (stereo not drawn) [Example 90, 2,2,2-trifluoro-1-(5-(2-((1-((1-methyl-1H-imidazol-4-yl)sulfonyl)piperidin-4-yl)amino)-5-(trifluoromethyl)pyrimidin-4-yl)thiazol-2-yl)ethan-1-ol] | ≤ 0.1 | ≤ 0.1 | ≤ 0.1 |
| Cc1ncc(-c2nc(NC3CCN(S(=O)(=O)N(C)C)CC3)ncc2C(F)(F)F)s1 [Example 47, N,N-Dimethyl-4-((4-(2-methylthiazol-5-yl)-5-(trifluoromethyl)pyrimidin-2-yl)amino)piperidine-1-sulfonamide] | > 1 | 0.1 to 1 | ≤ 0.1 |
| CC(O)c1ncc(-c2nc(N[C@H]3CCN(S(=O)(=O)c4cnc(N)s4)C[C@H]3C)ncc2C(F)(F)F)s1 (stereo partly drawn) [Example 103, 1-(5-(2-(((3R,4S)-1-((2-aminothiazol-5-yl)sulfonyl)-3-methylpiperidin-4-yl)amino)-5-(trifluoromethyl)pyrimidin-4-yl)thiazol-2-yl)ethan-1-ol] | > 1 | 0.1 to 1 | ≤ 0.1 |
| CS(=O)(=O)N1CCC(Nc2ncc(C(F)(F)F)c(-c3cnc(C4=CCOCC4)s3)n2)CC1 [Example 2, 4-[2-(3,6-Dihydro-2H-pyran-4-yl)-1,3-thiazol-5-yl]-N-(1-methyl-sulfonylpiperidin-4-yl)-5-(trifluoromethyl)pyrimidin-2-amine] | 0.1 to 1 | ≤ 0.1 | 0.1 to 1 |
| CC(O)c1ncc(-c2nc(N[C@H]3CCN(S(=O)(=O)c4c[nH]cn4)C[C@H]3C)ncc2C(F)(F)F)s1 (stereo partly drawn) [Example 104, 1-(5-(2-(((3R,4S)-1-((1H-imidazol-4-yl)sulfonyl)-3-methylpiperidin-4-yl)amino)-5-(trifluoromethyl)pyrimidin-4-yl)thiazol-2-yl)ethan-1-ol] | 0.1 to 1 | 0.1 to 1 | ≤ 0.1 |
| Cc1cc(C(C)(C)O)ccc1-c1ncc(-c2nc(NC3CCN(S(C)(=O)=O)CC3)ncc2C(F)(F)F)s1 [Example 8, 2-[3-Methyl-4-[5-[2-[(1-methylsulfonylpiperidin-4-yl)amino]-5-(trifluoromethyl)pyrimidin-4-yl]-1,3-thiazol-2-yl]phenyl]propan-2-ol] | > 1 | 0.1 to 1 | ≤ 0.1 |
| CS(=O)(=O)N1CCC(Nc2ncc(C(F)(F)F)c(-c3cnc(O[C@@H]4CCC[C@H]4O)s3)n2)CC1 [Example 44, (1R,2R)-2-((5-(2-((1-(Methylsulfonyl)piperidin-4-yl)amino)-5-(trifluoromethyl)pyrimidin-4-yl)thiazol-2-yl)oxy)cyclopentanol] | 0.1 to 1 | ≤ 0.1 | ≤ 0.1 |
| Cc1cc(CO)ccc1-c1ncc(-c2nc(NC3CCN(S(C)(=O)=O)CC3)ncc2C(F)(F)F)s1 [Example 12, [3-methyl-4-[5-[2-[(1-methylsulfonylpiperidin-4-yl)amino]-5-(trifluoromethyl)pyrimidin-4-yl]-1,3-thiazol-2-yl]phenyl]methanol] | 0.1 to 1 | ≤ 0.1 | ≤ 0.1 |
| CCOc1ncc(-c2nc(NC3CCN(S(C)(=O)=O)CC3)ncc2C(F)(F)F)s1 [Example 52, 4-(2-Ethoxy-1,3-thiazol-5-yl)-N-(1-methylsulfonylpiperidin-4-yl)-5-(trifluoromethyl)pyrimidin-2-amine] | 0.1 to 1 | ≤ 0.1 | ≤ 0.1 |
| CS(=O)(=O)N1CCC(Nc2ncc(C(F)(F)F)c(-c3cnc(NC4COC4)s3)n2)CC1 [Example 38, 5-[2-[(1-Methylsulfonylpiperidin-4-yl)amino]-5-(trifluoromethyl)pyrimidin-4-yl]-N-(oxetan-3-yl)-1,3-thiazol-2-amine] | 0.1 to 1 | ≤ 0.1 | ≤ 0.1 |
| CS(=O)(=O)N1CCC(Nc2ncc(C(F)(F)F)c(-c3cnc(CO)s3)n2)CC1 [Example 24, [5-[2-[(1-methylsulfonylpiperidin-4-yl)amino]-5-(trifluoromethyl)pyrimidin-4-yl]-1,3-thiazol-2-yl]methanol] | > 1 | 0.1 to 1 | ≤ 0.1 |
| Cc1ncc(-c2nc(NC3CCN(S(=O)(=O)c4cnn(C)c4)CC3)ncc2C(F)(F)F)s1 [Example 60, N-[1-(1-Methylpyrazol-4-yl)sulfonylpiperidin-4-yl]-4-(2-methyl-1,3-thiazol-5-yl)-5-(trifluoromethyl)pyrimidin-2-amine] | 0.1 to 1 | ≤ 0.1 | ≤ 0.1 |
| CC(=O)Nc1ncc(-c2nc(NC3CCN(S(C)(=O)=O)CC3)ncc2C(F)(F)F)s1 [Example 21, N-(5-(2-((1-(methylsulfonyl)piperidin-4-yl)amino)-5-(trifluoromethyl)pyrimidin-4-yl)thiazol-2-yl)acetamide] | 0.1 to 1 | 0.1 to 1 | ≤ 0.1 |
| CNc1ncc(-c2nc(NC3CCN(S(C)(=O)=O)CC3)ncc2C(F)(F)F)s1 [Example 28, N-methyl-5-[2-[(1-methylsulfonylpiperidin-4-yl)amino]-5-(trifluoromethyl)pyrimidin-4-yl]-1,3-thiazol-2-amine] | ≤ 0.1 | ≤ 0.1 | ≤ 0.1 |
| CNCc1ccc(-c2ncc(-c3nc(NC4CCN(S(C)(=O)=O)CC4)ncc3C(F)(F)F)s2)c(C)c1 [Example 13, 4-[2-[2-Methyl-4-(methylaminomethyl)phenyl]-1,3-thiazol-5-yl]-N-(1-methylsulfonylpiperidin-4-yl)-5-(trifluoromethyl)pyrimidin-2-amine] | 0.1 to 1 | ≤ 0.1 | ≤ 0.1 |
| CN(c1ncc(-c2nc(NC3CCN(S(C)(=O)=O)CC3)ncc2C(F)(F)F)s1)C1CCCC1 [Example 33, N-cyclopentyl-N-methyl-5-(2-((1-(methylsulfonyl)piperidin-4-yl)amino)-5-(trifluoromethyl)pyrimidin-4-yl)thiazol-2-amine] | > 1 | ≤ 0.1 | ≤ 0.1 |
| Cn1cnc(S(=O)(=O)N2CC[C@H](Nc3ncc(C(F)(F)F)c(-c4cnc(CC(C)(C)O)s4)n3)[C@H](F)C2)c1 [Example 74, 1-(5-(2-(((3R,4S)-3-fluoro-1-((1-methyl-1H-imidazol-4-yl)sulfonyl)piperidin-4-yl)amino)-5-(trifluoromethyl)pyrimidin-4-yl)thiazol-2-yl)-2-methylpropan-2-ol] | ≤ 0.1 | ≤ 0.1 | ≤ 0.1 |
